“And” between values parts separate entries of the source, which are not always exact repeats. Equal values may be shown once. “Also recorded” adds a separate entry of the source. Read-outs that look alike come from different tables or passages of the source.
Experiments:
NFκB = NFκB luciferase assay (inhibition of TNFα-induced NFκB activity); type: cell-based, Human; details: HEK293 with NFκB luciferase reporter challenged with TNFα
Method: The smokeless tobacco used in these experiments was plain long-leaf Copenhagen tobacco purchased from a local vendor. Crude extract was extracted with methanol and water and clarified by centrifugation and filtration. The alkaloid extract was prepared from sodium hydroxide and methanol extraction, organic phase separation and purification. All treatment samples were prepared as a function of weight (μg/ml), and all samples were diluted in DMSO.
Human […] kidney cells (HEK293) transfected with an NFκB luciferase reporter were challenged with TNFα for three hours, then samples were applied to the challenged cells.
The effect of S-(−)-anatabine on TNFα-induced NFκB activity in vitro was determined as described in Example 1.

[1] = Physical signs after single i.v. dose (Example 3); type: in vivo, Sprague-Dawley rats; details: rat, nicotine 0.4 mg/kg, anatabine 0.10, 0.75, 1.0 mg/kg, tartrate
Method: Four aliquots of each dose level formulation were collected and stored at −80° C. The test compound, corresponding dose level, number of animals, and sample collection times for Phase I of the study are shown in Table 3. The test compound, corresponding dose level, number of animals, and sample collection times for Phase II of the study are shown in Table 4. The physical signs of each animal were monitored following administration of the test compound.

[2] = Single i.v. dose toxicity: body weights and food consumption; type: in vivo, Sprague-Dawley rats; details: for Average Daily Food Consumption per Rat: Nicotine 0.75 mg/kg; for Mean weight increase by day 14: single i.v. 0.75 mg/kg nicotine
Method: (§1) Body weight and food consumption was measured daily for 14 days. On day 15, urine was collected on all surviving animals. The animals were euthanized and bled via cardiac puncture, and blood was collected for analysis. Tissues were collected, weighed, evaluated for gross abnormalities, and stored in 10% neutral-buffered formalin.
All animals were observed daily.

[3] = Single i.v. dose toxicity: necropsy observations and organ weights; type: in vivo, Sprague-Dawley rats
Method: as §1
(§2) On day 15, urine was collected on all surviving animals for urinalysis. The animals were euthanized and bled via cardiac puncture. Blood was collected for hematology, clinical chemistry, and coagulation analysis. Tissues were collected, weighed, and stored in 10% neutral-buffered formalin for possible future analysis.

[4] = Single i.v. dose toxicity: coagulation (aPTT, PT); type: in vivo, Sprague-Dawley rats; details: for ACTIVE PARTIAL THROMBOPLASTIN TIME: nicotine 0.75 mg/kg single i.v. dose, tartrate
Text: as §2

nAChR α3/β4 = nAChR α3/β4 (Homo sapiens, UniProt P30926+P32297); type: cell-based
Method: (§3) Briefly, cells were incubated with […] dye for 30 min at 37° C.

nAChR α4/β2 = molecular target: T1, nAChR α4/β2 (Homo sapiens, UniProt P17787+P43681); type: cell-based; details: for Normalized % Potentiation: with 10 μM Ach, 100% = 10 μM Ach+3 μM epibatidine, 0% = 10 μM Ach
T1 construct: host or cells: HEK293 cells, transient
Method: as §3

nAChR α7 = molecular target: T2, nAChR α7 (Homo sapiens, UniProt P36544); experiment: nAChR α7 channel agonist assay (FLIPR); type: cell-based; details: in presence of PNU-120596; maximal stimulation not achieved
T2 construct: host or cells: CHO cells coexpressing RIC-3
Method: as §3
Therefore, the assay of agonist activity for either Ach or for the test articles was conducted in the presence of the positive allosteric modulator.

[5] = Group E: Nicotine 0.75 mg/kg (Females), individual animals, tartrate
[6] = Group E: Nicotine 0.75 g/kg Males), individual animals, tartrate
[7] = female animals, Nicotine 0.75 mg/kg, n = 3
[8] = male rats, single i.v. 0.75 mg/kg nicotine, day 15

T1 sequence (P43681 29-627): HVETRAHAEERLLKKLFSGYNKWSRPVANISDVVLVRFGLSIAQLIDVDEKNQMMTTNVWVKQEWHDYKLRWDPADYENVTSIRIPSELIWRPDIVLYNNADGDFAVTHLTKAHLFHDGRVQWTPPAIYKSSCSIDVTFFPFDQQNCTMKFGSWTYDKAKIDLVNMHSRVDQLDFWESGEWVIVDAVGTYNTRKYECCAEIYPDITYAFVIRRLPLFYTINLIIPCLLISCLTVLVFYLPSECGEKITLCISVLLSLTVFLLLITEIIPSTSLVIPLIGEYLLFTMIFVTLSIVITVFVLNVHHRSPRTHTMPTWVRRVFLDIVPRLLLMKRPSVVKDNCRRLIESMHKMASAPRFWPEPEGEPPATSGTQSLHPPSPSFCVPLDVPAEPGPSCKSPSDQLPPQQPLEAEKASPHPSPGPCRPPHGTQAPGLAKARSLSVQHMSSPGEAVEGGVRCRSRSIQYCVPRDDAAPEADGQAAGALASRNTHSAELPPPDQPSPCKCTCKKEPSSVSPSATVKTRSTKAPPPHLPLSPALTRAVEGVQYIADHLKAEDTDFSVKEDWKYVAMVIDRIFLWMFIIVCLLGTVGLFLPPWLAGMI
T1 sequence (P17787 26-502): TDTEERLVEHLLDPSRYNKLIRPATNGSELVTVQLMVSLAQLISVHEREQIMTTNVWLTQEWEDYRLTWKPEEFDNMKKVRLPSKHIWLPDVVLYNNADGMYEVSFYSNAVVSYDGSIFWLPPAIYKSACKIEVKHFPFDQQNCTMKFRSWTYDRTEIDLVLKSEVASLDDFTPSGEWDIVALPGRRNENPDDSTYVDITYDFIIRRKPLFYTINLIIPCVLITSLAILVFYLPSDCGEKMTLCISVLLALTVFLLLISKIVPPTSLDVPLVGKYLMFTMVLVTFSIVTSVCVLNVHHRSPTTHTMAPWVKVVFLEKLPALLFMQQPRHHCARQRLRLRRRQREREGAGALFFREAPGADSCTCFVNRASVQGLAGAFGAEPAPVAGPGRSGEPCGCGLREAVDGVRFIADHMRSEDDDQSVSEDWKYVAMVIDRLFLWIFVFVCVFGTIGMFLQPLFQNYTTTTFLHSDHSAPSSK
T2 sequence (P36544 23-502): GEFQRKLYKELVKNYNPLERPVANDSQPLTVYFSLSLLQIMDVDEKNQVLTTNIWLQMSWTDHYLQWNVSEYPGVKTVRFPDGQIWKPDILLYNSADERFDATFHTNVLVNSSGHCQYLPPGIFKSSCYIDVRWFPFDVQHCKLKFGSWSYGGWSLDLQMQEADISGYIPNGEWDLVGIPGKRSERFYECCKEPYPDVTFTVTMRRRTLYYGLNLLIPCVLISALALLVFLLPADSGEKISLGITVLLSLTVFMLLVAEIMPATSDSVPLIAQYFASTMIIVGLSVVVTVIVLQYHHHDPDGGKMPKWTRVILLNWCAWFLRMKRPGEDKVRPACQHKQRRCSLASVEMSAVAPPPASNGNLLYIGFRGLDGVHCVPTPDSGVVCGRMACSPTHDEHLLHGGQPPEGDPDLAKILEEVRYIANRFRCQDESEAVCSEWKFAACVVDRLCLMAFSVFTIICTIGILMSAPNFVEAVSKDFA
Sequence of nAChR α3/β4 (P32297 32-505): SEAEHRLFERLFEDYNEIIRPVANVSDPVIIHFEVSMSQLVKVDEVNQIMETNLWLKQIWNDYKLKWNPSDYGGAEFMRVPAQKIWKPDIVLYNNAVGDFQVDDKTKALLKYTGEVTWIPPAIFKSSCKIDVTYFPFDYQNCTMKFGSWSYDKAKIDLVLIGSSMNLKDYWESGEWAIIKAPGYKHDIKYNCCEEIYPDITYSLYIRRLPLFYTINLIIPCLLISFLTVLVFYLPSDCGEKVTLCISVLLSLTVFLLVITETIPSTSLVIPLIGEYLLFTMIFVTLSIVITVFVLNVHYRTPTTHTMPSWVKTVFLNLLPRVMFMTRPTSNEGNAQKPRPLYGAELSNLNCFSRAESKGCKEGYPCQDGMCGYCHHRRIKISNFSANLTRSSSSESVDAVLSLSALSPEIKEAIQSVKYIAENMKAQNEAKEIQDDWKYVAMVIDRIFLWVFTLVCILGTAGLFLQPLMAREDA
Sequence of nAChR α3/β4 (P30926 22-498): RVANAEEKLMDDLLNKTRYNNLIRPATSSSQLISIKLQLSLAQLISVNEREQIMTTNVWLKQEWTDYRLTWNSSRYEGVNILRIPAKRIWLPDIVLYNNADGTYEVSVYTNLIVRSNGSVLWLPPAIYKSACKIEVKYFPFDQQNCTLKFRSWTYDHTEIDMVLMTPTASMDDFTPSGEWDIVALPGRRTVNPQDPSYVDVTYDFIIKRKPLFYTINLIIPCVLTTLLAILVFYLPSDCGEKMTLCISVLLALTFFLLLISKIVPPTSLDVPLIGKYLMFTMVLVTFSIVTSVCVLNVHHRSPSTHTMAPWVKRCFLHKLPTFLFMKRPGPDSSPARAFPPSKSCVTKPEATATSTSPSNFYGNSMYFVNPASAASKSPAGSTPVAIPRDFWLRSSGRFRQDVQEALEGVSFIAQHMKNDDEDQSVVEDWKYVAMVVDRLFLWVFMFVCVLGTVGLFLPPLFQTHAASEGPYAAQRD

CN1CCCC1c1cccnc1.O=C(O)C(O)C(O)C(=O)O (single isomer, unassigned; (-)) [Nicotine, (−) Nicotine hydrogen tartrate, reference compound]
Effect on TNFα-induced NFκB-mediated transcription of luciferase (NFκB): reduce TNFα-induced NFκB-mediated transcription
physical signs post dose [1]: experienced tremors immediately post dose; also recorded: experienced labored breathing
Average Daily Food Consumption per Rat ([2]; Female, day 6, cages 1 and 2, tartrate): 20.0 grams
Average Daily Food Consumption per Rat ([2]; Males, day 8, cages 1 and 2, tartrate): 24.0 grams
day 13 B.W. ([2]; individual male rats, single i.v. 0.75 mg/kg, tartrate, 0.75 mg/kg): 330 g
B.W. day 6 ([2]; nicotine 0.75 mg/kg single i.v. dose, day 6, male rats (individual animals), tartrate): 270 g
Mean weight increase by day 14 ([2]; female rats): 40.8 g
Mean weight increase by day 14 ([2]; male rats, listed as nicotine, tartrate, 0.75 mg/kg): significantly lower than the controls
Mean weight increase by day 14 ([2]; male rats, tartrate, 0.75 mg/kg): 98.5 g
Tissue Collection Weights: Heart [3, 5]: 0.83 g
Tissue Collection Weights: Lungs [3, 5]: 1.20 g
Tissue Collection Weights: Ovaries/uterus [3, 5]: 0.92 g
Tissue Collection Weights: Small intestine [3, 5]: 0.41 g and 0.40 g and 0.28 g
Tissue Collection Weights: Spleen [3, 5]: 0.46 g (2×) and 0.76 g
Tissue Collection Weights: Thymus [3, 5]: 0.54 g and 0.48 g (2×)
Tissue Collection Weights: Brain [3, 6]: 1.90 g
Tissue Collection Weights: Heart [3, 6]: 1.20 g
Tissue Collection Weights: Prostate [3, 6]: 0.41 g and 0.28 g (2×) and 0.45 g
Tissue Collection Weights: Small intestine [3, 6]: 0.71 g and 0.56 g and 0.53 g and 0.40 g
Tissue Collection Weights: Spleen [3, 6]: 0.81 g and 0.62 g and 0.78 g and 0.86 g
Tissue Collection Weights: Thymus [3, 6]: 0.54 g and 0.46 g and 0.56 g and 0.76 g
Organ Weight Brain, Mean [3, 7]: 1.86 g
Organ Weight Heart, Mean [3, 7]: 0.99 g
Organ Weight Kidneys, Mean [3, 7]: 2.31 g
Organ Weight Liver, Mean [3, 7]: 9.59 g
Organ Weight Lungs, Mean [3, 7]: 1.32 g
Organ Weight Ovaries/uteris, Mean [3, 7]: 1.28 g
Organ Weight, Small intestine (mean) [3, 7]: 0.36 g
Organ Weight, Spleen (mean) [3, 7]: 0.56 g
Organ Weight, Thymus (mean) [3, 7]: 0.50 g
Organ Weight, Prostate (mean) [3, 8]: 0.36 g
Organ Weight, Small intestine (mean) [3, 8]: 0.55 g
Organ Weight, Spleen (mean) [3, 8]: 0.77 g
Organ Weight, Thymus (mean) [3, 8]: 0.58 g
organ weights vs vehicle controls ([3]; nicotine 0.75 mg/kg, heart, liver and kidneys in males, thymus and heart in females): significantly lower than those of the corresponding vehicle controls
aPTT vs vehicle control ([4]; male and female rats, nicotine 0.75 mg/kg): significantly lower relative to the vehicle control group
ACTIVE PARTIAL THROMBOPLASTIN TIME ([4]; female rats, individual animals E6, E9): 15 s
ACTIVE PARTIAL THROMBOPLASTIN TIME ([4]; male rats, individual animals E1, E2, E3, E5): 15 s
potentiation (nAChR α3/β4): Neither nicotine nor anatabine potentiated
inhibition (nAChR α4/β2; 100 μM Ach + 0.3 μM epibatidine, not concentration-dependent, IC50s could not be determined): inhibited receptor activity
Normalized % Potentiation (nAChR α4/β2; test conc 0.3 μM): −46.00%
Normalized % Potentiation (nAChR α4/β2; test conc 1 μM): −46.34%
Normalized % Potentiation (nAChR α4/β2; test conc 3 μM): −40.54%
Normalized % Potentiation (nAChR α4/β2; test conc 10 μM): −42.16%
Normalized % Potentiation (nAChR α4/β2; test conc 30 μM): −43.70%
Normalized % Potentiation (nAChR α4/β2; test conc 100 μM): −43.40%
Normalized % Potentiation (nAChR α4/β2; test conc 300 μM): −34.56%
Normalized % Potentiation (nAChR α4/β2; test conc 1000 μM): −39.66%
agonist activity (nAChR α7): showed agonist activity
